Results taken from article PMC8652888, “Angiogenesis, Anti-Tumor, and Anti-Metastatic Activity of Novel α-Substituted Hetero-Aromatic Chalcone Hybrids as Inhibitors of Microtubule Polymerization” (Frontiers in Chemistry, 2021).
Like-named read-outs stand apart in the source and are kept apart here.

Tests used:
MGC-803 = assay: Antiproliferative activity (SRB and CCK-8 assay); assay type: cell-based; details: Homo sapiens
Description: (§1) The synthesized compounds were first evaluated for their cytotoxic effect on MCF-7 (human breast adenocarcinoma), U937 (histiocytic lymphoma cancer), HepG2 (human liver cancer) cells, and MGC-803 (human gastric cancer) using the SRB and CCK-8 assay. As reference compounds CA-4 and colchicine were included.

HepG2 = assay: Antiproliferative activity, SRB assay; assay type: cell-based, human; details: Homo sapiens, HepG2
Method: as §1
(§2) The primary tumor cells were purchased from a professional biomedical company. First, the primary tumor cells were incubated in a cell culture incubator at 37°C and 5% CO2. After the cell fusion reached 85%–95%, subculture was performed, and the tumor cells obtained at this time were used for subsequent related experiments. The CCK-8 method was used to inhibit the proliferation of U937 tumor cells, and the SRB method was used to inhibit the proliferation of MCF7 and HepG2 tumor cells.
Cells were distributed into 96-well plates with a density of 3 × 10^3–4 × 10^3 cells per well and incubated for 24 h in a 5% CO2 incubator at 37°C, followed by treatment with study compounds at different concentrations at 37°C for 72 h. One hundred microliters of 10% (w/v) trichloroacetic acid was added to each well, fixed at 4°C for 30 min, and dried at 65°C. Then 100 μl of 0.4% SRB was added to each well and stained on a shaker for 20 min at room temperature. The excess dye solution was washed with newly prepared 1% glacial acetic acid and dried at 65°C. One hundred fifty microliters of 10 mM unbuffered Trisbase was added to each well of the plate and shaken for 5 min to dissolve the dye. The microplate reader measured the optical density (OD) at a wavelength of 560 nm.

MCF-7 = assay: Antiproliferative activity, SRB assay; assay type: cell-based, human; details: Homo sapiens;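 further: proliferation of MCF7 cells quantified by sulforhodamine B staining, with optical density read at 560 nm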
U937 = assay: Antiproliferative activity, CCK-8 assay; assay type: cell-based; details: Homo sapiens, U-937
Method: as §1, §2
The cells in the logarithmic growth phase were seeded in a 96-well plate at 8,000/well, and the drug-containing medium and cell suspension were added to the well. Three wells were added with the blank medium as the blank group. The 96-well plate was incubated for 72 h in a 37°C, 5% CO2 incubator. The 10 μl of CCK-8 dye solution was added to each well, and the incubation continued for 3–4 h.

[1] = supplement raw data, read-out: IC50/MGC
[2] = triplicate, mean ± SD, read-out: IC50 ± SD, MGC-803
[3] = 72 h, triplicate, mean ± SD, read-out: IC50 ± SD, HepG2
[4] = MCF7, 72 h, 72 h, triplicate, mean ± SD, read-out: IC50 ± SD, MCF-7
[5] = MCF7, supplement raw data, read-out: IC50/MCF
[6] = 72 h, triplicate, mean ± SD, read-out: IC50 ± SD, U937
[7] = supplement raw data of table 2, read-out: IC50(U937)

| Structure (SMILES) | melting point | IC50 (MGC-803; [1]) | IC50 (MGC-803; [2]) | IC50 (HepG2; [3]) | IC50 (MCF-7; [4]) | IC50 (MCF-7; [5]) | IC50 (U937; [6]) | IC50 (U937; supplement raw data, read-out: IC50/U937) | IC50 (HepG2; supplement raw data of table 2, read-out: IC50(Hepg2)) | IC50 (U937; [7]) | IC50 (MCF-7; MCF7, supplement raw data of table 2, read-out: IC50(MCF-7)) |
| --- | --- | --- | --- | --- | --- | --- | --- | --- | --- | --- | --- |
| COc1cc(C(=O)/C=C/c2ccc3oc4ccccc4c3c2)cc(OC)c1OC [Compound 6l, (E)-3-[dibenzo (b,d)furan-2-yl]1-(3,4,5-trimethoxyphenyl)prop-2-en-1-one] | 56.5 to 57.6 °C | 326 nM | 326 ± 16 nM | 3270 ± 65 nM | 810 ± 68 nM | 810 nM | 2080 ± 252 nM |  |  |  |  |
| COc1cc(C(=O)/C=C/c2ccc3occc3c2)cc(OC)c1OC [Compound 6m, (E)-3-(benzofuran-5-yl)-1-(3,4,5-trimethoxyphenyl)prop-2-en-1-one] | 110.5 to 115.3 °C |  | 3180 ± 62 nM | > 20000 nM | 6460 ± 103 nM |  | 6170 ± 1640 nM |  |  |  |  |
| COc1cc(C(=O)/C=C/c2csc3ccccc23)cc(OC)c1OC [Compound 6p, (E)-3-(benzo[b]thiophen-3-yl)-1-(3,4,5-trimethoxyphenyl)prop-2-en-1-one] | 95.5 to 96.4 °C | 75.7 nM | 76 ± 1 nM | 1380 ± 136 nM | 283 ± 11 nM | 283 nM | > 20000 nM |  |  |  |  |
| COc1cc(C(=O)/C=C/c2c[nH]c3cc(Br)ccc23)cc(OC)c1OC [Compound 6g, (E)-3-(6-bromo-1H-indol-3-yl)-1-(3,4,5-trimethoxyphenyl)prop-2-en-1-one] | 216.4 to 217.6 °C | 70.6 nM | 71 ± 2 nM | 18100 ± 295 nM | 380 ± 20 nM | 380 nM | > 20000 nM |  |  |  |  |
| COc1cc(C(=O)/C=C/c2ccc3sc4ccccc4c3c2)cc(OC)c1OC [Compound 6q, (E)-3[dibenzo (b,d)thiophen-2-yl]-1-(3,4,5-trimethoxyphenyl)prop-2-en-1-one] | 118.7 to 119.2 °C |  | 3220 ± 284 nM | 10600 ± 457 nM | 5090 ± 569 nM |  | 6380 ± 148 nM |  |  |  |  |
| COc1cc(C(=O)/C=C/c2c(-c3ccccc3)[nH]c3ccccc23)cc(OC)c1OC [Compound 6c, (E)-3-(2-phenyl-1H-indol-3-yl)-1-(3,4,5-trimethoxyphenyl)prop-2-en-1-one] | 60.2 to 61.7 °C |  | 104 ± 1 nM | 1080 ± 92 nM | 313 ± 17 nM | 313 nM | 601 ± 267 nM | 601 nM |  |  |  |
| COc1cc(C(=O)/C=C/c2cc3ccccc3o2)cc(OC)c1OC [Compound 6h, (E)-3-(benzofuran-2-yl)-1-(3,4,5-trimethoxyphenyl)prop-2-en-1-one] | 79.5 to 80.3 °C |  | 8780 ± 309 nM | > 20000 nM | 14600 ± 368 nM |  | > 20000 nM |  |  |  |  |
| COc1cc(C(=O)/C=C/c2cc3ccccc3s2)cc(OC)c1OC [Compound 6o, (E)-3-(benzo[b]thiophen-2-yl)-1-(3,4,5-trimethoxyphenyl)prop-2-en-1-one] | 115.5 to 116.9 °C |  | 1380 ± 86 nM | 8380 ± 585 nM | 2070 ± 43 nM |  | > 20000 nM |  |  |  |  |
| COc1cc(C(=O)/C=C/c2cccc3c2OCO3)cc(OC)c1OC [Compound 6s, (E)-3-(benzo[d][1,3]dioxol-4-yl)-1-(3,4,5-trimethoxyphenyl)prop-2-en-1-one] | 138.4 to 140.3 °C | 393 nM | 393 ± 17 nM | 3320 ± 229 nM | 1230 ± 133 nM |  | > 20000 nM |  |  |  |  |
| COc1cc(C(=O)/C(C#N)=C/c2cc3ccccc3o2)cc(OC)c1OC [Compound 8h, (E)-3-(benzofuran-2-yl)-2-(3,4,5-trimethoxybenzoyl)acrylonitrile] | 168.3 to 169.5 °C |  |  | > 20000 nM | > 20000 nM |  | > 20000 nM |  |  |  |  |
| COc1cc(C(=O)/C(C#N)=C/c2coc3ccccc23)cc(OC)c1OC [Compound 8j, (E)-3-(benzofuran-3-yl)-2-(3,4,5-trimethoxybenzoyl)acrylonitrile] | 176.5 to 178.4 °C |  |  | > 20000 nM | > 20000 nM |  | > 20000 nM |  |  |  |  |
| COc1cc(C(=O)/C(C#N)=C/c2ccc3occc3c2)cc(OC)c1OC [Compound 8m, (E)-3-(benzofuran-5-yl)-2-(3,4,5-trimethoxybenzoyl)acrylonitrile] | 169.7 to 172.1 °C |  |  | > 20000 nM | > 20000 nM |  | > 20000 nM |  |  |  |  |
| COc1cc(C(=O)/C=C/c2c(C)[nH]c3ccccc23)cc(OC)c1OC [Compound 6b, (E)-3-(2-methyl-1H-indol-3-yl)-1-(3,4,5-trimethoxyphenyl)prop-2-en-1-one] | 236.7 to 238.2 °C | 190 nM | 190 ± 2 nM | 14110 ± 117 nM | 281 ± 22 nM | 281 nM | > 20000 nM |  |  |  |  |
| COc1cc(C(=O)/C=C/c2ccc3c(c2)CCO3)cc(OC)c1OC [Compound 6n, (E)-3-(2,3-dihydrobenzofuran-5-yl)-1-(3,4,5-trimethoxyphenyl)prop-2-en-1-one] | 107.5 to 110.3 °C | 851 nM | 851 ± 63 nM | > 20000 nM | 3130 ± 415 nM |  | > 20000 nM |  |  |  |  |
| COc1cc(C(=O)/C(C#N)=C/c2c(-c3ccccc3)[nH]c3ccccc23)cc(OC)c1OC [Compound 8c, (E)-2-((l2-azaneylidene)-l3-methyl)-3-(2-phenyl-1H-indol-3-yl)-1-(3,4,5-trimethoxyphenyl)prop-2-en-1-one] | 253.8 to 255.9 °C |  |  | 14100 ± 386 nM | 2100 ± 270 nM |  | 4490 ± 433 nM |  |  |  |  |
| COc1cc(C(=O)/C(C)=C/c2cccc3c2OCO3)cc(OC)c1OC [Compound 7s, (E)-3-(benzo[d][1,3]dioxol-4-yl)-2-methyl-1-(3,4,5-trimethoxyphenyl)prop-2-en-1-one] | 119.7 to 120.9 °C |  |  | 259 ± 5 nM | 225 ± 5 nM |  | 353 ± 6 nM |  | 259 nM | 353 nM |  |
| COc1cc(C(=O)/C(C#N)=C/c2ccc3sc4ccccc4c3c2)cc(OC)c1OC [Compound 8q, (E)-3-[dibenzo (b,d)thiophen-2-yl]-2-(3,4,5-trimethoxybenzoyl)acrylonitrile] | 199.7 to 201.1 °C |  |  | > 20000 nM | > 20000 nM |  | 52300 ± 3660 nM |  |  | 52300 nM |  |
| COC(=O)c1ccc2c(/C=C(\C#N)C(=O)c3cc(OC)c(OC)c(OC)c3)c[nH]c2c1 [Compound 8f, methyl(E)-3-(2-cyano-3-oxo-3-(3,4,5-trimethoxyphenyl)prop-1-en-1-yl)-1H-indole-6-carboxylate] | 239.7 to 241 °C |  |  | > 20000 nM | > 20000 nM |  | > 20000 nM |  |  |  |  |
| COc1cc(C(=O)/C(C)=C/c2cc3ccccc3o2)cc(OC)c1OC [Compound 7h, (E)-3-(benzofuran-2-yl)-2-methyl-1-(3,4,5-trimethoxyphenyl)prop-2-en-1-one] | 50.1 to 53.2 °C |  |  | 116 ± 7 nM | 254 ± 10 nM |  | 224 ± 7 nM |  |  |  | 255 nM |
